Test results as given in publication PMC6954543, “A window-of-opportunity trial of the CXCR1/2 inhibitor reparixin in operable HER-2-negative breast cancer” (Breast Cancer Research : BCR, 2020).

Experiments:
Format in all cases: in vivo, human
[1] = tested on: ALDH+ and CD24−/CD44+ CSC; assay: CSC evaluation in core biopsy samples by flow cytometry
Procedure: Patients underwent core biopsies at baseline (day − 14 to 0) and at the completion of therapy (day 21). Three to five ≥ 18-gage needle biopsies were taken to measure the changes in CSC populations and pathway markers. If not performed at the completion of treatment, a core biopsy was taken on the day of surgery by the same technique. A sample of the surgically resected tumor tissue was also taken.
CSC populations (CD24^−/CD44^+ and ALDH^+) were measured by flow-cytometry of single-cell suspensions obtained from tumor biopsies (Additional file 1: Supplemental Materials) by using anti-human CD44-APC (clone G44-26) and CD24-FITC (clone ML5, RUO) antibodies (BD Biosciences, Franklin Lakes, NJ), and ALDEFLUOR assay (StemCell Technologies, Inc., Vancouver, BC, Canada), respectively, as previously published.
In the absence of reference data from the literature, signal of activity was defined as a ≥ 20% reduction in CSC (defined by either the ALDH^+− or CD24^−/CD44^+ phenotype) from baseline values as measured by flow cytometry, accompanied by a consistent reduction of the same cell population by IHC. The 20% cutoff was chosen considering only 1 21-day course of reparixin could be administered before surgery. Given the exploratory nature of the study to be conducted in a curable patient population, a sample of 40 patients divided into 2 subgroups of 20 patient each (i.e., ER+ and/or PgR+ and TNBC) was deemed adequate based upon simulations using the Wilson score method to obtain a lower limit for the probability of success. For each subgroup with this sample size, the study will have 80% power to detect a signal of activity (as defined above) observed in ≥ 70% patients as statistically significant at the 0.05 significance level.
To obtain single cell suspension, samples were weighed and observed for appearance, then placed in digestion media and kept at room temperature. The specimens were then rocked for 1 hour at 185 rpm (1.5 hours for surgical specimens), then filtered through 70 µm filter. HBSS+ was added to rinse any residual cells from filter, and the specimens were centrifuged 350xg for 5 minutes at 4 °C. For RBC lysis, cells were resuspended in sterile cell culture grade water, and after 20 seconds, 10XPBS was added. The specimens were then centrifuged at 350xg for 5 minutes at 4 °C. Supernatant was removed. The rest of the specimen was then filtered with 40 µm sterile cell strainer. Cell concentration was measured using Invitrogen Countess.

[2] = tested on: CXCL8 and other cytokines; assay: Serum cytokine levels (Milliplex/Luminex); details: day 1 vs day 21
Procedure: The concentrations of interleukin (IL)-1β, IL-6, CXCL8, tumor necrosis factor (TNF)-α, granulocyte macrophage colony stimulating factor (GM-CSF), vascular endothelial growth factor (VEGF), and basic fibroblast growth factor (b-FGF) were measured in sera obtained from patients on days 1 and 21 of the study.
In brief, serum cytokines levels were measured using a method, as previously published. Serum samples were processed and aliquoted within 24 hours for archiving at -80 °C. Samples were analyzed in batch using Milliplex bead kits (EMD Millipore Corporation, Billerica, MA) according to the manufacturer’s protocol with overnight incubations and an additional point added at the low end of the standard curve, and analyzed using a Luminex LX100 (Luminex Corporation, Austin, TX). BioPlex control and analysis software Version 5.0, (BioRad, Hercules, CA) was used.

CD18+ PMNs = assay: Adhesion molecule expression on peripheral blood PMNs by flow cytometry; details: after 21 days of treatment vs baseline; p < 0.05
Procedure: The expression of adhesion molecules (CD11b, CD18, and CD66b) on PMNs was investigated. Typically, 100 µL of whole blood were incubated with 10nM CXCL8 for 10 minutes at room temperature to upregulate the expression of adhesion molecules. Untreated whole blood samples were included as control. We measured the percentage of PMNs that expressed CD11b, CD18, and CD66b as well as the Mean Fluorescence of Intensity (MFI) of each adhesion molecule as a measure of expression density by flow cytometry.

monocytes and PMNs = assay: Intracellular cytokine production by monocytes and PMNs by flow cytometry; details: without or with activation by LPS and/or CXCL8; data not shown
Procedure: Intracellular cytokine production by peripheral blood monocytes and PMNs were assessed using a modification of previously published procedure. Briefly, monocytes and PMNs in whole blood were activated with CXCL8 (10nM), LPS ([…]), and LPS+CXCL8 for 2 hours at 37 °C before the addition of Brefeldin A (BFA) for another 3 hours to block the transportation of the intracellular cytokines from the Golgi to the cell surface. Thereafter, red blood cells were lysed with 1×FACSTM Lysing Solution (BD Biosciences) and the membrane of activated cells permeabilized with 1×FACSTM Perm 2 solution (BD Biosciences). Next, the activated monocytes and PMNs were stained with fluorochrome-conjugated specific antibodies to IL-1β, TNF-α, CXCL8, and IL-6 before the samples were analyzed by flow cytometry. The percentages of monocytes and PMNs that produced IL-1β, TNF-α, CXCL8, and IL-6 were recorded.

P62 = assay: p62 expression on tumor cells by IHC; details: IHC score 0 to 4
Procedure: (§1) All IHC analyses and scoring for extent (0 to 4) and intensity (0 to 3) were performed at the Houston Memorial Hermann Pathology laboratory as previously described. After antigen retrieval (Tris-Cl, pH 9.0), paraffin-embedded sections of sample tumors were incubated for 1 h at room temperature with the following antibodies: anti-human CXCR1 (rabbit polyclonal to CXCR1 - C-terminal, ab137351; Abcam, Cambridge, MA), anti-human CD31 (clone JC70A, #IS610; Dako, Glostrup, Denmark), anti-human p62 (clone SQSTM1/p62, # 5114; Cell Signaling), anti-human AKT (rabbit polyclonal to pan-AKT, # ab8805; Abcam), anti-human FAK (clone pY861, #44-626G; Invitrogen, Qiagen, Carlsbad, CA), anti-human phospho-AKT (clone Ser473 (D9E), #4060; Cell Signaling), anti-human phospho-FAK (clone Y397, #ab4803; Abcam), and anti-human LC3B (clone D11, #3868; Cell Signaling). For the evaluation of extent, the following semi-quantitative score method (0 to 4) was used: 0, no positive cells; 1, 1–25%; 2, 26–50%; 3, 51–75%; and 4, 76–100%.

P-AKT = P-AKT staining of core biopsies by IHC; details: day 21 (16/20 at baseline)
Procedure: as §1

SMILES: CC(C)Cc1ccc([C@@H](C)C(=O)NS(C)(=O)=O)cc1 [reparixin]
- patients with decrease in ALDH+ cells not accompanied by reduction of CD24−/CD44+ cells [1]: 2 patients
- patients with decrease in CD24−/CD44+ CSC not paralleled by decrease in ALDH+ CSC [1]: 6 patients
- patients without ALDH+ CSC at baseline in whom ALDH+ CSCs were detected at day 21 ([1]; core biopsy): 5/9
- patients without CD24−/CD44+ CSC at baseline in whom CD24−/CD44+ CSCs were detected at day 21 ([1]; core biopsy): 6/6
- other cytokines (IL-1β, IL-6, TNF-α, GM-CSF, VEGF, b-FGF), change [2]: No statistically significant changes
- percentage of CD18+ PMNs following in vitro stimulation with CXCL8 (CD18+ PMNs): decreased
- production of inflammatory cytokines (CXCL8, IL-6, TNF-α, IL-1β) by monocytes and PMNs (monocytes and PMNs): No statistically significant difference
- P62 extent (percentage of positive cells), change baseline to day 21 (P62): decreased from level 4 to level 3 or lower in the majority of patients
- patients with value of 0 for P-AKT, extent and intensity (P-AKT): 11/15
